molecular target: human GLP-1 receptor (Homo sapiens (Human), UniProt P43220); details: read-out: Mean EC50; cAMP, HTRF detection, 30 min at 37° C., HEK-293 cells expressing cloned human GLP-1 receptor
Sequence (P43220 24-463): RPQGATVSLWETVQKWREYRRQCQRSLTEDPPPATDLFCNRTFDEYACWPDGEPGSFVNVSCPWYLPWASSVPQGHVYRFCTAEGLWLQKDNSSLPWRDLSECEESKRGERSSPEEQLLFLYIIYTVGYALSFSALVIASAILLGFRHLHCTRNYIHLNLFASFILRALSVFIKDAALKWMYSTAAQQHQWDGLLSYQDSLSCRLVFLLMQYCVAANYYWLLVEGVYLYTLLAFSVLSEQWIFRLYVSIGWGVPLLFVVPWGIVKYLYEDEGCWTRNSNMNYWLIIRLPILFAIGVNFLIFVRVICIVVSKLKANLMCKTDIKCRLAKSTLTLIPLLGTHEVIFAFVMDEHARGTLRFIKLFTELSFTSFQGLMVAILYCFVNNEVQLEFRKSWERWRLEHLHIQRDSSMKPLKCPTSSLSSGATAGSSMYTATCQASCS

`Cc1nc(C)c(S(=O)(=O)N2Cc3cc4c(cc3C[C@H]2C(=O)N[C@@H](Cc2ccc(-c3ccc(C#N)cc3)cc2)C(=O)O)OCC(c2ccc(OCc3ccc(Cl)c(Cl)c3)cc2)O4)s1` (stereo in doubt) [Example 130, (S)-3-(4′-Cyano-biphenyl-4-yl)-2-{[(S)-3-[4-(3,4-dichloro-benzyloxy)-phenyl]-7-(2,4-dimethyl-thiazole-5-sulfonyl)-2,3,6,7,8,9-hexahydro-[1,4]dioxino[2,3-g]isoquinoline-8-carbonyl]-amino}-propionic acid] and `Cc1nc(N)sc1S(=O)(=O)N1Cc2cc3c(cc2C[C@H]1C(=O)N[C@@H](Cc1ccc(-c2ccc(C#N)cc2)cc1)C(=O)O)OC[C@@H](c1ccc(OCc2ccc(Cl)c(Cl)c2)cc1)O3` [Example 60, (S)-2-({(3R,8S)-7-(2-Amino-4-methyl-thiazole-5-sulfonyl)-3-[4-(3,4-dichloro-benzyloxy)-phenyl]-2,3,6,7,8,9-hexahydro-[1,4]dioxino[2,3-g]isoquinoline-8-carbonyl}-amino)-3-(4′-cyano-biphenyl-4-yl)-propionic acid] are within 1.5-fold of each other in EC50: 0.111 µM for the first, 0.109 µM for the second.

Going from `Cc1nc(N2CCOCC2)ccc1S(=O)(=O)N1Cc2cc3c(cc2C[C@H]1C(=O)N[C@@H](Cc1ccc(-c2ccc(C#N)cc2)cc1)C(=O)O)OCC(c1ccc(OCc2ccc(Cl)c(Cl)c2)cc1)O3` (stereo in doubt) [Example 133, (S)-3-(4′-Cyano-biphenyl-4-yl)-2-{[(S)-3-[4-(3,4-dichloro-benzyloxy)-phenyl]-7-(2-methyl-6-morpholin-4-yl-pyridine-3-sulfonyl)-2,3,6,7,8,9-hexahydro-[1,4]dioxino[2,3-g]isoquinoline-8-carbonyl]-amino}-propionic acid] to `CCNc1ccc(S(=O)(=O)N2Cc3cc4c(cc3C[C@H]2C(=O)N[C@@H](Cc2ccc(-c3ccc(C#N)cc3)cc2)C(=O)O)OCC(c2ccc(OCc3ccc(Cl)c(Cl)c3)cc2)O4)c(C)n1` (stereo in doubt) [Example 135, (S)-3-(4′-Cyano-biphenyl-4-yl)-2-{[(S)-3-[4-(3,4-dichloro-benzyloxy)-phenyl]-7-(6-ethylamino-2-methyl-pyridine-3-sulfonyl)-2,3,6,7,8,9-hexahydro-[1,4]dioxino[2,3-g]isoquinoline-8-carbonyl]-amino}-propionic acid], the EC50 rises from 0.054 µM to 0.284 µM (5.3-fold). The first is the more potent here.

First: COCCNc1ccc(S(=O)(=O)N2Cc3cc4c(cc3C[C@H]2C(=O)N[C@@H](Cc2ccc(-c3ccc(C#N)cc3)cc2)C(=O)O)OCC(c2ccc(OCc3ccc(Cl)c(Cl)c3)cc2)O4)c(C)n1 (stereo in doubt) [Example 136, (S)-3-(4′-Cyano-biphenyl-4-yl)-2-({(S)-3-[4-(3,4-dichloro-benzyloxy)-phenyl]-7-[6-(2-methoxy-ethylamino)-2-methyl-pyridine-3-sulfonyl]-2,3,6,7,8,9-hexahydro-[1,4]dioxino[2,3-g]isoquinoline-8-carbonyl}-amino)-propionic acid]
Second: COCCNc1nc(C)c(S(=O)(=O)N2Cc3cc4c(cc3C[C@H]2C(=O)N[C@@H](Cc2ccc(-c3ccc(C#N)cc3)cc2)C(=O)O)OC[C@H](c2ccc(OCc3ccc(Cl)c(Cl)c3)cc2)O4)s1 [Example 92, (S)-3-(4′-Cyano-biphenyl-4-yl)-2-({(3S,8S)-3-[4-(3,4-dichloro-benzyloxy)-phenyl]-7-[2-(2-methoxy-ethylamino)-4-methyl-thiazole-5-sulfonyl]-2,3,6,7,8,9-hexahydro-[1,4]dioxino[2,3-g]isoquinoline-8-carbonyl}-amino)-propionic acid]
The EC50 of the first is 3.1-fold lower: 0.05 µM for the first, 0.156 µM for the second.

Going from `CC(=O)Nc1nc(-c2ccc(S(=O)(=O)N3Cc4cc5c(cc4C[C@H]3C(=O)N[C@@H](Cc3ccc(-c4ccc(C#N)cc4)cc3)C(=O)O)OCC(c3ccc(OCc4ccc(Cl)c(Cl)c4)cc3)O5)cc2)cs1` (stereo in doubt) [Example 138, (S)-2-({(S)-7-[4-(2-Acetylamino-thiazol-4-yl)-benzenesulfonyl]-3-[4-(3,4-dichloro-benzyloxy)-phenyl]-2,3,6,7,8,9-hexahydro-[1,4]dioxino[2,3-g]isoquinoline-8-carbonyl}-amino)-3-(4′-cyano-biphenyl-4-yl)-propionic acid] to `N#Cc1ccc(-c2ccc(C[C@H](NC(=O)[C@@H]3Cc4cc5c(cc4CN3S(=O)(=O)c3ccc(-c4csc(N)n4)cc3)OC(c3ccc(OCc4ccc(Cl)c(Cl)c4)cc3)CO5)C(=O)O)cc2)cc1` (stereo in doubt) [Example 139, (S)-2-({(S)-7-[4-(2-Amino-thiazol-4-yl)-benzenesulfonyl]-3-[4-(3,4-dichloro-benzyloxy)-phenyl]-2,3,6,7,8,9-hexahydro-[1,4]dioxino[2,3-g]isoquinoline-8-carbonyl}-amino)-3-(4′-cyano-biphenyl-4-yl)-propionic acid], the EC50 falls from 0.241 µM to 0.085 µM (2.8-fold). The second is the more potent here.

First: CNc1nc(C)c(S(=O)(=O)N2Cc3cc4c(cc3C[C@H]2C(=O)N[C@@H](Cc2ccc(-c3ccc(C#N)cc3)cc2)C(=O)O)OC[C@@H](c2ccc(OCc3ccc(Cl)c(Cl)c3)cc2)O4)s1 [Example 61, (S)-3-(4′-Cyano-biphenyl-4-yl)-2-{[(3R,8S)-3-[4-(3,4-dichloro-benzyloxy)-phenyl]-7-(4-methyl-2-methylamino-thiazole-5-sulfonyl)-2,3,6,7,8,9-hexahydro-[1,4]dioxino[2,3-g]isoquinoline-8-carbonyl]-amino}-propionic acid]
Second: CNc1nc(C)c(S(=O)(=O)N2Cc3cc4c(cc3C[C@H]2C(=O)N[C@@H](Cc2ccc(-c3ccc(C#N)cc3)cc2)C(=O)O)OC[C@H](c2ccc(OCc3ccc(Cl)c(Cl)c3)cc2)O4)s1 [Example 85, (S)-3-(4′-Cyano-biphenyl-4-yl)-2-{[(3S,8S)-3-[4-(3,4-dichloro-benzyloxy)-phenyl]-7-(4-methyl-2-methylamino-thiazole-5-sulfonyl)-2,3,6,7,8,9-hexahydro-[1,4]dioxino[2,3-g]isoquinoline-8-carbonyl]-amino}-propionic acid]
The EC50 of the first is 3.6-fold lower: 0.073 µM for the first, 0.263 µM for the second.

`CCNc1nc(C)c(S(=O)(=O)N2Cc3cc4c(cc3C[C@H]2C(=O)N[C@@H](Cc2ccc(-c3ccc(C#N)cc3)cc2)C(=O)O)OC[C@@H](c2ccc(OCc3ccc(Cl)c(Cl)c3)cc2)O4)s1` [Example 62, (S)-3-(4′-Cyano-biphenyl-4-yl)-2-{[(3R,8S)-3-[4-(3,4-dichloro-benzyloxy)-phenyl]-7-(2-ethylamino-4-methyl-thiazole-5-sulfonyl)-2,3,6,7,8,9-hexahydro-[1,4]dioxino[2,3-g]isoquinoline-8-carbonyl]-amino}-propionic acid] and `CCNc1nc(C)c(S(=O)(=O)N2Cc3cc4c(cc3C[C@H]2C(=O)N[C@@H](Cc2ccc(-c3ccc(C#N)cc3)cc2)C(=O)O)OC[C@H](c2ccc(OCc3ccc(Cl)c(Cl)c3)cc2)O4)s1` [Example 86, (S)-3-(4′-Cyano-biphenyl-4-yl)-2-{[(3S,8S)-3-[4-(3,4-dichloro-benzyloxy)-phenyl]-7-(2-ethylamino-4-methyl-thiazole-5-sulfonyl)-2,3,6,7,8,9-hexahydro-[1,4]dioxino[2,3-g]isoquinoline-8-carbonyl]-amino}-propionic acid] are within 1.5-fold of each other in EC50: 0.328 µM for the first, 0.249 µM for the second.

Compared with `Cc1nc(NC(=O)[C@@H]2CCCN2)sc1S(=O)(=O)N1Cc2cc3c(cc2C[C@H]1C(=O)N[C@@H](Cc1ccc(-c2ccc(C#N)cc2)cc1)C(=O)O)OCC(c1ccc(OCc2ccc(Cl)c(Cl)c2)cc1)O3` (stereo partly drawn) [Example 71], `CCC(=O)Nc1nc(C)c(S(=O)(=O)N2Cc3cc4c(cc3C[C@H]2C(=O)N[C@@H](Cc2ccc(-c3ccc(C#N)cc3)cc2)C(=O)O)OCC(c2ccc(OCc3ccc(Cl)c(Cl)c3)cc2)O4)s1` (stereo partly drawn) [Example 132, (S)-3-(4′-Cyano-biphenyl-4-yl)-2-{[(S)-3-[4-(3,4-dichloro-benzyloxy)-phenyl]-7-(4-methyl-2-propionylamino-thiazole-5-sulfonyl)-2,3,6,7,8,9-hexahydro-[1,4]dioxino[2,3g]isoquinoline-8-carbonyl]-amino}-propionic acid] is 2.2-fold lower in EC50: 0.477 µM for the first, 0.214 µM for the second. The second is the more potent here.

Compared with `CC[C@@H](c1ccccc1)N1Cc2cc3c(cc2C[C@H]1C(=O)N[C@@H](Cc1ccc(-c2ccc(C#N)cc2)cc1)C(=O)O)OC[C@H](c1ccc(OCc2ccc(Cl)c(Cl)c2)cc1)O3` [Example 72, (S)-3-(4′-Cyano-biphenyl-4-yl)-2-{[(3S,8S)-3-[4-(3,4-dichloro-benzyloxy)-phenyl]-7-((S)-1-phenyl-propyl)-2,3,6,7,8,9-hexahydro-[1,4]dioxino[2,3-g]isoquinoline-8-carbonyl]-amino}-propionic acid], `CC[C@@H](c1ccccc1)N1Cc2cc3c(cc2C[C@H]1C(=O)N[C@@H](Cc1ccc(-c2ccncc2)cc1)C(=O)O)OC[C@H](c1ccc(OCc2ccc(Cl)c(Cl)c2)cc1)O3` [Example 73, (S)-2-{[(3S,8S)-3-[4-(3,4-Dichloro-benzyloxy)-phenyl]-7-((S)-1-phenyl-propyl)-2,3,6,7,8,9-hexahydro-[1,4]dioxino[2,3-g]isoquinoline-8-carbonyl]-amino}-3-(4-pyridin-4-yl-phenyl)-propionic acid] is 6.3-fold lower in EC50: 0.48 µM for the first, 0.076 µM for the second.

`Cc1nc(N)sc1S(=O)(=O)N1Cc2cc3c(cc2C[C@H]1C(=O)N[C@@H](Cc1ccc(-c2ccc(C#N)cc2)cc1)C(=O)O)OC[C@H](c1ccc(OCc2ccc(Cl)c(Cl)c2)cc1)O3` [Example 81, (S)-2-({(3S,8S)-7-(2-Amino-4-methyl-thiazole-5-sulfonyl)-3-[4-(3,4-dichloro-benzyloxy)-phenyl]-2,3,6,7,8,9-hexahydro-[1,4]dioxino[2,3-g]isoquinoline-8-carbonyl}-amino)-3-(4′-cyano-biphenyl-4-yl)-propionic acid] and `COc1cc(C)ccc1S(=O)(=O)N1Cc2cc3c(cc2C[C@H]1C(=O)N[C@@H](Cc1ccc(-c2ccc(C#N)cc2)cc1)C(=O)O)OC[C@H](c1ccc(OCc2ccc(Cl)c(Cl)c2)cc1)O3` [Example 98, (S)-3-(4′-Cyano-biphenyl-4-yl)-2-{[(3S,8S)-3-[4-(3,4-dichloro-benzyloxy)-phenyl]-7-(2-methoxy-4-methyl-benzenesulfonyl)-2,3,6,7,8,9-hexahydro-[1,4]dioxino[2,3-g]isoquinoline-8-carbonyl]-amino}-propionic acid] are within 1.5-fold of each other in EC50: 0.326 µM for the first, 0.377 µM for the second.

— patent US9175003B2, “Substituted azoanthracene derivatives and intermediates for preparation thereof” (TransTech Pharma, LLC, priority 2009, dated 2015)
